Tests used:
Type in all cases: biochemical
TMPRSS2 = TMPRSS2 (Homo sapiens, UniProt O15393); assay: PS-SCL / HyCoSuL substrate specificity screening, TMPRSS2; conditions: for P2 Position Substrate Activity for TMPRSS2 (percent substrate cleavage/proteolysis): residue fixed at P2 position of substrate library; for P2 Position Substrate Activity for TMPRSS2 (percent substrate cleavage/proteolysis) / P3 Position Substrate Activity for TMPRSS2 (percent substrate cleavage/proteolysis) / P4 Position Substrate Activity for TMPRSS2 (percent substrate cleavage/proteolysis): best recognized amino acid set to 100%; for P3 Position Various Amino Acids Substrate Activity, TMPRSS2 (percent substrate cleavage/proteolysis) / P3 Position Substrate Activity for TMPRSS2 (percent substrate cleavage/proteolysis): residue fixed at P3 position of substrate library; for P4 Position Various Amino Acids Substrate Activity, TMPRSS2 (percent substrate proteolysis/cleavage) / P4 Position Substrate Activity for TMPRSS2 (percent substrate cleavage/proteolysis): residue fixed at P4 position of substrate library
hepsin = target: T1, hepsin (Homo sapiens, UniProt P05981); assay: HyCoSuL P4-P2 substrate specificity screening, hepsin; conditions: for P2 Position Substrate Activity for hepsin (percent substrate cleavage/proteolysis): residue fixed at P2 position; for P2 Position Substrate Activity for hepsin (percent substrate cleavage/proteolysis) / P3 Position Substrate Activity for hepsin (percent substrate cleavage/proteolysis) / P4 Position Substrate Activity for hepsin (percent substrate cleavage/proteolysis): P1-Arg HyCoSuL, 100 μM, best recognized amino acid set to 100%; for P3 Position Substrate Activity for hepsin (percent substrate cleavage/proteolysis): residue fixed at P3 position; for P4 Position Substrate Activity for hepsin (percent substrate cleavage/proteolysis): residue fixed at P4 position; for P3 Position Various Amino Acids Substrate Activity, hepsin (percent substrate cleavage/proteolysis): residue fixed at P3 position of substrate library; for P4 Position Various Amino Acids Substrate Activity, hepsin (percent substrate proteolysis/cleavage): residue fixed at P4 position of substrate library
T1 construct: purchased R&D Systems 4776-SE-010

matriptase = target: T2, matriptase (Homo sapiens, UniProt Q9Y5Y6); assay: HyCoSuL P4-P2 substrate specificity screening, matriptase; conditions: for P2 Position Substrate Activity for matriptase (percent substrate cleavage/proteolysis): residue fixed at P2 position; for P2 Position Substrate Activity for matriptase (percent substrate cleavage/proteolysis) / P3 Position Substrate Activity for matriptase (percent substrate cleavage/proteolysis) / P4 Position Substrate Activity for matriptase (percent substrate cleavage/proteolysis): P1-Arg HyCoSuL, 100 μM, best recognized amino acid set to 100%; for P3 Position Various Amino Acids Substrate Activity, matriptase (percent substrate cleavage/proteolysis): residue fixed at P3 position of substrate library; for P3 Position Substrate Activity for matriptase (percent substrate cleavage/proteolysis): residue fixed at P3 position; for P4 Position Various Amino Acids Substrate Activity, matriptase (percent substrate proteolysis/cleavage): residue fixed at P4 position of substrate library; for P4 Position Substrate Activity for matriptase (percent substrate cleavage/proteolysis): residue fixed at P4 position
T2 sequence (Q9Y5Y6 1-855): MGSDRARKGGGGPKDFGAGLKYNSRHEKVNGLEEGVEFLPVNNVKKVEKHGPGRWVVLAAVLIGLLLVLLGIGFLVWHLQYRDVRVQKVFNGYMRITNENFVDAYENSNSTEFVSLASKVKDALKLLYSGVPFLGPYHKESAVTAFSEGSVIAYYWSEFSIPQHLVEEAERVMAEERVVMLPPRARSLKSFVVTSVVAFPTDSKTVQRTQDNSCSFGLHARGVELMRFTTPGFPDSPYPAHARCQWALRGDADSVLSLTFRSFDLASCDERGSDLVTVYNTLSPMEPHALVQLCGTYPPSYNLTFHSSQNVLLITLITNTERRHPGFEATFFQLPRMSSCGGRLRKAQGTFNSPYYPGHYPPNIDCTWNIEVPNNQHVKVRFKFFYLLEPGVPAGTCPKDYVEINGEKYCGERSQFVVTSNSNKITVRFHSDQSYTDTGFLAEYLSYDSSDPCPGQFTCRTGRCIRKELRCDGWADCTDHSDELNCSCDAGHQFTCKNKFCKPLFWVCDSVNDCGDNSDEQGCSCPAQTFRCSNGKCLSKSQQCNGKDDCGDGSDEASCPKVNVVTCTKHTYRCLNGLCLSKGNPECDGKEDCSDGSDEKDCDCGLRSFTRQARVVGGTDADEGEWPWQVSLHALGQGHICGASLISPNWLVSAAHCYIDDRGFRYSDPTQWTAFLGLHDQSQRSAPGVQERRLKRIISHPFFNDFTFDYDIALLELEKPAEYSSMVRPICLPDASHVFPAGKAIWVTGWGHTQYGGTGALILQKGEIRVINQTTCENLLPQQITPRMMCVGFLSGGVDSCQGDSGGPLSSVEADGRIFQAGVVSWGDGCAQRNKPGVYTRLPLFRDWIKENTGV

HGFA = target: T3, HGFA (Homo sapiens, UniProt Q04756); assay: HyCoSuL P4-P2 substrate specificity screening, HGFA; conditions: for P2 Position Substrate Activity for HGFA (percent substrate cleavage/proteolysis): residue fixed at P2 position; for P2 Position Substrate Activity for HGFA (percent substrate cleavage/proteolysis) / P3 Position Substrate Activity for HGFA (percent substrate cleavage/proteolysis) / P4 Position Substrate Activity for HGFA (percent substrate cleavage/proteolysis): P1-Arg HyCoSuL, 100 μM, best recognized amino acid set to 100%; for P3 Position Substrate Activity for HGFA (percent substrate cleavage/proteolysis): residue fixed at P3 position; for P4 Position Substrate Activity for HGFA (percent substrate cleavage/proteolysis): residue fixed at P4 position; for P3 Position Various Amino Acids Substrate Activity, HGFA (percent substrate cleavage/proteolysis): residue fixed at P3 position of substrate library; for P4 Position Various Amino Acids Substrate Activity, HGFA (percent substrate proteolysis/cleavage): residue fixed at P4 position of substrate library
T3 sequence (Q04756 373-655): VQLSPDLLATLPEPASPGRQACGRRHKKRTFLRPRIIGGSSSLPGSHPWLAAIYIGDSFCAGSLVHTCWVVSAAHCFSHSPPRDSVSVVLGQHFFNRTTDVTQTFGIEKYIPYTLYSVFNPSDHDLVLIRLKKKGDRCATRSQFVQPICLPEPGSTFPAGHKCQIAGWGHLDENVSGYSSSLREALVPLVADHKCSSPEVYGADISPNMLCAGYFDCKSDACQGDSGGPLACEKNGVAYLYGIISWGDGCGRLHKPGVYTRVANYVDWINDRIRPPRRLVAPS

T1 sequence (P05981 163-417 limits assumed): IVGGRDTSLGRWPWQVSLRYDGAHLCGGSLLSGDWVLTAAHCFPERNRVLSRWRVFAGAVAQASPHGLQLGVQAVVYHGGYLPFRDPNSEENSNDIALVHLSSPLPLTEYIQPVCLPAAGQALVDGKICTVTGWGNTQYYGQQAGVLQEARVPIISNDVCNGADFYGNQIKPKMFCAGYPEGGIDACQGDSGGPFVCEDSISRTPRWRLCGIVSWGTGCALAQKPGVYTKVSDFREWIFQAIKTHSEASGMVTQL
T1 sequence (P05981 1-162 partner limits assumed): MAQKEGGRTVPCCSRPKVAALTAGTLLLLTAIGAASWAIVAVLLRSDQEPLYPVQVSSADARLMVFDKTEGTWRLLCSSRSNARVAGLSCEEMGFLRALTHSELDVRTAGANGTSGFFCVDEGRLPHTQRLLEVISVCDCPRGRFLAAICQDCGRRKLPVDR
Sequence of TMPRSS2 (O15393 whole entry): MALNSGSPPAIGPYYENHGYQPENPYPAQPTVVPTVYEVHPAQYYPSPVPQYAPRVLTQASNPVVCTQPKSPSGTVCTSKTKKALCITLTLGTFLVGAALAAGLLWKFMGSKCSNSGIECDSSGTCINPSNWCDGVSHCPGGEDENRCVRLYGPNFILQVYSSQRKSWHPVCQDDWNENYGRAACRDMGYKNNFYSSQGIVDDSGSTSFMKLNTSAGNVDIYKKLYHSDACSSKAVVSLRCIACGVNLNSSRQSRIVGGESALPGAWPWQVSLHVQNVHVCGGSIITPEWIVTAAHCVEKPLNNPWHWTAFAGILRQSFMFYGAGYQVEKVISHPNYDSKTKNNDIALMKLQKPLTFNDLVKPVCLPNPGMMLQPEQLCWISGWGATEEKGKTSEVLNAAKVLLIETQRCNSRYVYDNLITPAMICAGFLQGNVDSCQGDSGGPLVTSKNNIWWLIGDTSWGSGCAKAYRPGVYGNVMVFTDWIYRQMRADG

| Molecule | P2 Position Substrate Activity for TMPRSS2 (percent substrate cleavage/proteolysis) (TMPRSS2) [%] | P3 Position Various Amino Acids Substrate Activity, TMPRSS2 (percent substrate cleavage/proteolysis) (TMPRSS2) [%] | P4 Position Various Amino Acids Substrate Activity, TMPRSS2 (percent substrate proteolysis/cleavage) (TMPRSS2) [%] | P2 Position Substrate Activity for hepsin (percent substrate cleavage/proteolysis) (hepsin) [%] | P3 Position Substrate Activity for hepsin (percent substrate cleavage/proteolysis) (hepsin) [%] | P4 Position Substrate Activity for hepsin (percent substrate cleavage/proteolysis) (hepsin) [%] | P2 Position Substrate Activity for matriptase (percent substrate cleavage/proteolysis) (matriptase) [%] | P3 Position Various Amino Acids Substrate Activity, matriptase (percent substrate cleavage/proteolysis) (matriptase) [%] | P3 Position Substrate Activity for matriptase (percent substrate cleavage/proteolysis) (matriptase) [%] | P4 Position Various Amino Acids Substrate Activity, matriptase (percent substrate proteolysis/cleavage) (matriptase) [%] | P4 Position Substrate Activity for matriptase (percent substrate cleavage/proteolysis) (matriptase) [%] | P2 Position Substrate Activity for HGFA (percent substrate cleavage/proteolysis) (HGFA) [%] | P3 Position Substrate Activity for HGFA (percent substrate cleavage/proteolysis) (HGFA) [%] | P4 Position Substrate Activity for HGFA (percent substrate cleavage/proteolysis) (HGFA) [%] | P3 Position Substrate Activity for TMPRSS2 (percent substrate cleavage/proteolysis) (TMPRSS2) [%] | P4 Position Substrate Activity for TMPRSS2 (percent substrate cleavage/proteolysis) (TMPRSS2) [%] | P3 Position Various Amino Acids Substrate Activity, hepsin (percent substrate cleavage/proteolysis) (hepsin) [%] | P4 Position Various Amino Acids Substrate Activity, hepsin (percent substrate proteolysis/cleavage) (hepsin) [%] | P3 Position Various Amino Acids Substrate Activity, HGFA (percent substrate cleavage/proteolysis) (HGFA) [%] | P4 Position Various Amino Acids Substrate Activity, HGFA (percent substrate proteolysis/cleavage) (HGFA) [%] |
| --- | --- | --- | --- | --- | --- | --- | --- | --- | --- | --- | --- | --- | --- | --- | --- | --- | --- | --- | --- | --- |
| NC1(C(=O)O)CCCC1 [AC5C] | 0.00 | 0.00 | 17.02 | – | – | – | – | – | – | – | – | – | – | – | – | – | – | – | – | – |
| N[C@@H](Cc1ccc(F)cc1)C(=O)O [L-Phe(4-F)] | 100.00 | 14.82 | 21.80 | 32.86 | – | – | 65 | 11 | – | 8 | – | 4.84 | – | – | – | – | 5.16 | 27.78 | 15.01 | 11.22 |
| O=C(O)[C@@H]1CCCCN1 [L-Pip] | 24.73 | 0.00 | 15.31 | 10.66 | – | – | 10 | 0 | – | 11 | – | 1.75 | – | – | – | – | 1.64 | 34.68 | 0.83 | 9.25 |
| CC(C)CC[C@H](N)C(=O)O [L-hLeu] | 8.15 | 35.41 | 53.91 | 14.44 | – | – | 5 | 25 | – | 27 | – | 72.69 | – | – | – | – | 13.84 | 41.61 | 23.44 | 14.86 |
| D-Ala | 0.00 | 0.00 | 27.00 | 0.00 | – | – | 0 | 2 | – | 6 | – | 0.00 | – | – | – | – | 48.09 | 18.44 | 9.84 | 7.11 |

Now from value to molecule:

| P2 Position Substrate Activity for TMPRSS2 (percent substrate cleavage/proteolysis) (TMPRSS2) [%] | P3 Position Various Amino Acids Substrate Activity, TMPRSS2 (percent substrate cleavage/proteolysis) (TMPRSS2) [%] | P4 Position Various Amino Acids Substrate Activity, TMPRSS2 (percent substrate proteolysis/cleavage) (TMPRSS2) [%] | P2 Position Substrate Activity for hepsin (percent substrate cleavage/proteolysis) (hepsin) [%] | P3 Position Substrate Activity for hepsin (percent substrate cleavage/proteolysis) (hepsin) [%] | P4 Position Substrate Activity for hepsin (percent substrate cleavage/proteolysis) (hepsin) [%] | P2 Position Substrate Activity for matriptase (percent substrate cleavage/proteolysis) (matriptase) [%] | P3 Position Various Amino Acids Substrate Activity, matriptase (percent substrate cleavage/proteolysis) (matriptase) [%] | P3 Position Substrate Activity for matriptase (percent substrate cleavage/proteolysis) (matriptase) [%] | P4 Position Various Amino Acids Substrate Activity, matriptase (percent substrate proteolysis/cleavage) (matriptase) [%] | P4 Position Substrate Activity for matriptase (percent substrate cleavage/proteolysis) (matriptase) [%] | P2 Position Substrate Activity for HGFA (percent substrate cleavage/proteolysis) (HGFA) [%] | P3 Position Substrate Activity for HGFA (percent substrate cleavage/proteolysis) (HGFA) [%] | P4 Position Substrate Activity for HGFA (percent substrate cleavage/proteolysis) (HGFA) [%] | P3 Position Substrate Activity for TMPRSS2 (percent substrate cleavage/proteolysis) (TMPRSS2) [%] | P4 Position Substrate Activity for TMPRSS2 (percent substrate cleavage/proteolysis) (TMPRSS2) [%] | P3 Position Various Amino Acids Substrate Activity, hepsin (percent substrate cleavage/proteolysis) (hepsin) [%] | P4 Position Various Amino Acids Substrate Activity, hepsin (percent substrate proteolysis/cleavage) (hepsin) [%] | P3 Position Various Amino Acids Substrate Activity, HGFA (percent substrate cleavage/proteolysis) (HGFA) [%] | P4 Position Various Amino Acids Substrate Activity, HGFA (percent substrate proteolysis/cleavage) (HGFA) [%] | Molecule |
| --- | --- | --- | --- | --- | --- | --- | --- | --- | --- | --- | --- | --- | --- | --- | --- | --- | --- | --- | --- | --- |
| 52.14 | – | – | 0.00 | 82.17 | 91.83 | 0 | 75 | 75.40 | 49 | 48.54 | 0.00 | 30.67 | 16.90 | 71.88 | 63.90 | – | – | – | – | N[C@@H](CCCCOCc1ccccc1)C(=O)O [L-Nle(O-Bzl)] |
| 32.33 | 21.50 | 16.80 | 7.81 | – | – | 1 | 7 | – | 6 | – | 1.12 | – | – | – | – | 0.00 | 0.00 | 18.14 | 2.49 | Cn1cc(C[C@H](N)C(=O)O)c2ccccc21 [L-Trp(Me)] |
| 28.86 | 19.38 | 34.19 | 51.85 | – | – | 8 | 18 | – | 29 | – | 8.33 | – | – | – | – | 16.77 | 43.08 | 9.51 | 11.66 | CC(C)[C@H](N)C(=O)O [L-Val] |
| 0.00 | – | – | 0.00 | 66.08 | 44.37 | 0 | 8 | 7.82 | 18 | 17.66 | 0.00 | 29.10 | 23.20 | 0.00 | 24.43 | – | – | – | – | D-Arg |
| 8.64 | 45.55 | 38.95 | – | – | – | 5 | 41 | – | – | – | – | – | – | – | – | – | – | – | – | L-Met |

— patent publication US20250171495A1, “MUTLI-TARGETED SERINE PROTEASE INHIBITORS FOR TREATMENT OF CANCER AND VIRAL INFECTION” (Washington University, priority 2023, published 2025)
